According to patent US20200069648A1, “HALOALLYLAMINE PYRAZOLE DERIVATIVE INHIBITORS OF LYSYL OXIDASES AND USES THEREOF” (Pharmaxis Ltd., priority 2017, published 2020):
Structures can show the parent of a compound that is named as a salt.

Columns and labels:
[1] = target: T1, Recombinant human MAO-B (Homo sapiens, UniProt P27338); assay: Human recombinant MAO-B inhibition; type: biochemical; conditions: benzylamine 100 μM
T1 construct: purchased Sigma Aldrich
T1 sequence (P27338 1-520): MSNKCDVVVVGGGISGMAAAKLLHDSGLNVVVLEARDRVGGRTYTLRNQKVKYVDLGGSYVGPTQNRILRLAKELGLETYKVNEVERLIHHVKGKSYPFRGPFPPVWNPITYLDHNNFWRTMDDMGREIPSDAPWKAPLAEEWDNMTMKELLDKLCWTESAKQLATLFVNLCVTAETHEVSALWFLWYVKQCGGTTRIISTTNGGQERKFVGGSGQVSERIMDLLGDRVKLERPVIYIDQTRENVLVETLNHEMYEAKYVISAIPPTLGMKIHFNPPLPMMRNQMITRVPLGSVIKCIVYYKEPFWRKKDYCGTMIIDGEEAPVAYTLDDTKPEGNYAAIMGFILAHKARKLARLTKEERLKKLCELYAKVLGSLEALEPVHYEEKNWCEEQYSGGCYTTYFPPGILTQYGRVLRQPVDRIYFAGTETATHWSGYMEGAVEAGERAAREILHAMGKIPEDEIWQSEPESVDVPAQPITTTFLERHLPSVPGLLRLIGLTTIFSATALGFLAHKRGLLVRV
Description: Method to Determine the Ability of Compounds of Formula I to Inhibit Human Recombinant MAO-B
The specificity of the compounds of this invention was tested by determining their ability to inhibit MAO-B activities in vitro. Recombinant human MAO-B (0.06 mg/mL; Sigma Aldrich) was used as source of MAO-B enzyme activities. The assay was performed in a similar way as for human SSAO/VAP-1 (Example 46) except, the substrate benzylamine was used at 100 μM.

[2] = target: T2, Human LOXL2 (Homo sapiens, UniProt Q9Y4K0); assay: LOXL2 amine oxidase inhibition, peroxidase-coupled Amplex Red assay; type: biochemical; conditions: 30 min preincubation at 37° C., putrescine substrate
T2 sequence (Q9Y4K0 26-774): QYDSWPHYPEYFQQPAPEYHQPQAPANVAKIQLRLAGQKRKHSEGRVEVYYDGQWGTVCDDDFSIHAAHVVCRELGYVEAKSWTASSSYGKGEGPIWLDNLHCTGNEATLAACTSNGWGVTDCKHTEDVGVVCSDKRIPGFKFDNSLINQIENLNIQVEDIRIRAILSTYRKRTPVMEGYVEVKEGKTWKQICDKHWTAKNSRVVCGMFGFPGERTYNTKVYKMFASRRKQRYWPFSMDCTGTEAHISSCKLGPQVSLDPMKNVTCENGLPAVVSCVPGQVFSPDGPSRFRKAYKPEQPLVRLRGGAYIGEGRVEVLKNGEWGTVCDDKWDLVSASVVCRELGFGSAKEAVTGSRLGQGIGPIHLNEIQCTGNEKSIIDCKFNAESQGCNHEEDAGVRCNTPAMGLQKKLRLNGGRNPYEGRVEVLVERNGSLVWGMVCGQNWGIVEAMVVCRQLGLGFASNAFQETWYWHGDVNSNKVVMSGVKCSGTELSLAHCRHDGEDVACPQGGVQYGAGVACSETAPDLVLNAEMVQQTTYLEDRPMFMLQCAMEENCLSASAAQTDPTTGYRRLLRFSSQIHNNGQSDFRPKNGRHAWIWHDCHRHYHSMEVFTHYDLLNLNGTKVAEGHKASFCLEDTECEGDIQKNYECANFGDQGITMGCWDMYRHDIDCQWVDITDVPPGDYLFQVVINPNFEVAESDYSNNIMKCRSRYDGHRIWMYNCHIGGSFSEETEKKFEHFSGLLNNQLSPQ
Source text: Method to Determine the Ability of Compounds of the Invention to Inhibit LOX and LOXL1-4 from Different Sources
Lysyl oxidase (LOX) is an extracellular copper dependent enzyme which oxidizes peptidyl lysine and hydroxylysine residues in collagen and lysine residues in elastin to produce peptidyl alpha-aminoadipic-delta-semialdehydes. […] There are five LOX family members; these are LOX, LOXL1, LOXL2, LOXL3 and LOXL4. LOX and LOXL family members can be acquired as recombinant active proteins from commercial sources, or extracted from animal tissues like bovine aorta, tendons, pig skin; or prepared from cell cultures. The inhibitory effects of the compounds of the present invention were tested against the given LOX-LOXL preparation using a high-throughput coupled colorimetric method (Holt A. and Palcic M., A peroxidase-coupled continuous absorbance plate-reader assay for flavin monoamine oxidases, copper-containing amine oxidases and related enzymes. Nat. Protoc. 2006; 1: 2498-2505). The assay was developed using either 384 or 96 well format. Briefly, in a standard 384 well plate assay 25 μL of a dilution of any of the isoenzymes and orthologues in 1.2 M urea, 50 mM sodium borate buffer (pH 8.2) were added into each well in the presence of 1 μM mofegiline and 0.5 mM pargyline (to inhibit SSAO and MAO-B and MAO-A, respectively). Test compounds were dissolved in DMSO and tested in a Concentration Response Curve (CRC) with 11 data points, typically in the micromolar or nanomolar range after incubation with the enzyme for 30 min at 37° C. Twenty five μL of a reaction mixture containing twice the KM concentration of putrescine (Sigma Aldrich, e.g. 20 mM for LOX, or 10 mM for LOXL2 and LOXL3), 120 μM Amplex Red (Sigma Aldrich) and 1.5 U/mL horseradish peroxidase (Sigma Aldrich) prepared in 1.2 M urea, 50 mM sodium borate buffer (pH 8.2) were then added to the corresponding wells. The above volumes were doubled in the case of 96 wells plate. The fluorescence (RFU) was read every 2.5 min for 30 min at a range of temperatures from 37° to 45° C., excitation 565 nm and emission 590 (Optima; BMG labtech). The slope of the kinetics for each well was calculated using MARS data analysis software (BMG labtech) and this value was used to deduce the IC50 value (Dotmatics).

Row | SMILES | IC50 [1] | IC50 [2]
1 | N#CCCN [BAPN, β-aminopropionitrile, reference compound] | > 100 µM | < 1 µM
2 | Cc1nn(C/C(F)=C/CN)c(C)c1Cc1ccc(S(=O)(=O)N(C)C(C)C)cc1 [Compound 8, (Z)-4-((1-(4-amino-2-fluorobut-2-en-1-yl)-3,5-dimethyl-1H-pyrazol-4-yl)methyl)-N-isopropyl-N-methylbenzenesulfonamide hydrochloride] | > 30 µM | < 1 µM
3 | Cc1nn(C/C(F)=C/CN)c(C)c1Cc1ccc(S(=O)(=O)N(C)C)c2ccccc12 [Compound 9, (Z)-4-((1-(4-amino-2-fluorobut-2-en-1-yl)-3,5-dimethyl-1H-pyrazol-4-yl)methyl)-N,N-dimethyl naphthalene-1-sulfonamide hydrochloride] | > 10 µM | < 1 µM
4 | Cc1nn(Cc2ccc(S(=O)(=O)N(C)C)cc2)c(C)c1C/C(F)=C/CN [Compound 10, (Z)-4-((4-(4-amino-2-fluorobut-2-en-1-yl)-3,5-dimethyl-1H-pyrazol-1-yl)methyl)-N,N-dimethylbenzenesulfonamide hydrochloride] | > 10 µM | < 1 µM
5 | Cc1nn(C/C(F)=C/CN)c(C)c1Cc1ccc(S(=O)(=O)NC(C)C)cc1 [Compound 11, (Z)-4-((1-(4-amino-2-fluorobut-2-en-1-yl)-3,5-dimethyl-1H-pyrazol-4-yl)methyl)-N-isopropyl benzenesulfonamide hydrochloride] | > 30 µM | < 1 µM
6 | Cc1nn(C/C(F)=C/CN)c(C)c1Cc1ccc(S(C)(=O)=O)cc1Cl [Compound 12, (Z)-4-(4-(2-chloro-4-(methylsulfonyl)benzyl)-3,5-dimethyl-1H-pyrazol-1-yl)-3-fluorobut-2-en-1-amine hydrochloride] | > 30 µM | < 1 µM
7 | CC(C)c1nn(C/C(F)=C/CN)c(C(C)O)c1Cc1ccc(S(=O)(=O)N(C)C)c(Cl)c1 (stereo not shown) [Compound 59, (Z)-4-((1-(4-amino-2-fluorobut-2-en-1-yl)-5-(1-hydroxyethyl)-3-isopropyl-1H-pyrazol-4-yl)methyl)-2-chloro-N,N-dimethylbenzenesulfonamide hydrochloride] | – | < 1 µM
8 | CC(C)c1nn(C/C(F)=C/CN)c(C(C)C)c1Cc1ccc(S(=O)(=O)N(C)C)c(Cl)c1 [Compound 60, (Z)-4-((1-(4-amino-2-fluorobut-2-en-1-yl)-3,5-diisopropyl-1H-pyrazol-4-yl)methyl)-2-chloro-N,N-dimethylbenzenesulfonamide hydrochloride] | – | < 1 µM
9 | Cc1nn(C/C(F)=C/CN)c(C(=O)N(C)C)c1Cc1ccc(S(=O)(=O)N(C)C)c(Cl)c1 [Compound 61, (Z)-1-(4-amino-2-fluorobut-2-en-1-yl)-4-(3-chloro-4-(N,N-dimethylsulfamoyl)benzyl)-N,N,3-trimethyl-1H-pyrazole-5-carboxamide hydrochloride] | – | < 1 µM
10 | Cc1nn(C/C(F)=C/CN)c(C(=O)NC(C)(C)C)c1Cc1ccc(S(=O)(=O)N(C)C)c(Cl)c1 [Compound 62, (Z)-1-(4-amino-2-fluorobut-2-en-1-yl)-N-(tert-butyl)-4-(3-chloro-4-(N,N-dimethylsulfamoyl)benzyl)-3-methyl-1H-pyrazole-5-carboxamide hydrochloride] | – | < 1 µM

Further lines, results first:

Row | IC50 [1] | IC50 [2] | SMILES
11 | > 30 µM | < 1 µM | Cc1nn(C/C(F)=C/CN)c(C(C)O)c1Cc1ccc(S(=O)(=O)N(C)C)c(Cl)c1 (single isomer, unassigned) [Compound 52, (Z)-4-((1-(4-amino-2-fluorobut-2-en-1-yl)-5-(1-hydroxyethyl)-3-methyl-1H-pyrazol-4-yl)methyl)-2-chloro-N,N-dimethylbenzenesulfonamide hydrochloride]
12 | > 30 µM | < 1 µM | Cc1nn(C/C(F)=C/CN)c(C(C)O)c1Cc1ccc(S(=O)(=O)N(C)C)c(Cl)c1 (single isomer, unassigned) [Compound 53, (Z)-4-((1-(4-amino-2-fluorobut-2-en-1-yl)-5-(1-hydroxyethyl)-3-methyl-1H-pyrazol-4-yl)methyl)-2-chloro-N,N-dimethylbenzenesulfonamide hydrochloride]
13 | > 10 µM | < 1 µM | CN(C)S(=O)(=O)c1ccc(-c2cnn(C/C(F)=C/CN)c2)cc1 [Compound 1, (Z)-4-(1-(4-amino-2-fluorobut-2-en-1-yl)-1H-pyrazol-4-yl)-N,N-dimethyl benzenesulfonamide hydrochloride]
14 | > 30 µM | < 1 µM | Cc1nn(C/C(F)=C/CN)c(C)c1Cc1ccc(S(=O)(=O)N(C)C)cc1 [Compound 2, (Z)-4-((1-(4-amino-2-fluorobut-2-en-1-yl)-3,5-dimethyl-1H-pyrazol-4-yl)methyl)-N,N-dimethylbenzenesulfonamide hydrochloride]
15 | > 30 µM | < 1 µM | Cc1nn(C/C(F)=C/CN)c(C)c1Cc1ccc(S(=O)(=O)N(C)C)cc1Cl [Compound 3, (Z)-4-((1-(4-amino-2-fluorobut-2-en-1-yl)-3,5-dimethyl-1H-pyrazol-4-yl)methyl)-3-chloro-N,N-dimethylbenzenesulfonamide hydrochloride]
16 | > 30 µM | < 1 µM | Cc1nn(C/C(F)=C/CN)c(C)c1Cc1ccc(S(C)(=O)=O)cc1 [Compound 4, (Z)-4-(3,5-dimethyl-4-(4-(methylsulfonyl)benzyl)-1H-pyrazol-1-yl)-3-fluorobut-2-en-1-amine hydrochloride]
17 | > 30 µM | < 1 µM | Cc1nn(C/C(F)=C/CN)c(C)c1Cc1cccc(S(=O)(=O)N(C)C)c1 [Compound 5, (Z)-3-((1-(4-amino-2-fluorobut-2-en-1-yl)-3,5-dimethyl-1H-pyrazol-4-yl)methyl)-N,N-dimethyl benzenesulfonamide hydrochloride]
18 | > 30 µM | < 1 µM | Cc1nn(C/C(F)=C/CN)c(C)c1Cc1ccc(S(=O)(=O)N2CCOCC2)cc1 [Compound 6, (Z)-4-(3,5-dimethyl-4-(4-(morpholinosulfonyl)benzyl)-1H-pyrazol-1-yl)-3-fluorobut-2-en-1-amine hydrochloride]
19 | > 30 µM | < 1 µM | Cc1nn(C/C(F)=C/CN)c(C)c1Cc1ccc(S(=O)(=O)N2CCCC2)cc1 [Compound 7, (Z)-4-(3,5-dimethyl-4-(4-(pyrrolidin-1-ylsulfonyl)benzyl)-1H-pyrazol-1-yl)-3-fluorobut-2-en-1-amine hydrochloride]
